These results are taken from patent publication US7223764B2, “2,4-bis (trifluoroethoxy)pyridine compound and drug containing the compound” (Kowa Co., Ltd., priority 2003, dated 2007).

The target in one data set is T1, ACAT (Mus musculus, UniProt Q61263).
T1 construct: endogenous in cells; host or cells: J774 (J774A) cells
T1 sequence (Q61263 1-540): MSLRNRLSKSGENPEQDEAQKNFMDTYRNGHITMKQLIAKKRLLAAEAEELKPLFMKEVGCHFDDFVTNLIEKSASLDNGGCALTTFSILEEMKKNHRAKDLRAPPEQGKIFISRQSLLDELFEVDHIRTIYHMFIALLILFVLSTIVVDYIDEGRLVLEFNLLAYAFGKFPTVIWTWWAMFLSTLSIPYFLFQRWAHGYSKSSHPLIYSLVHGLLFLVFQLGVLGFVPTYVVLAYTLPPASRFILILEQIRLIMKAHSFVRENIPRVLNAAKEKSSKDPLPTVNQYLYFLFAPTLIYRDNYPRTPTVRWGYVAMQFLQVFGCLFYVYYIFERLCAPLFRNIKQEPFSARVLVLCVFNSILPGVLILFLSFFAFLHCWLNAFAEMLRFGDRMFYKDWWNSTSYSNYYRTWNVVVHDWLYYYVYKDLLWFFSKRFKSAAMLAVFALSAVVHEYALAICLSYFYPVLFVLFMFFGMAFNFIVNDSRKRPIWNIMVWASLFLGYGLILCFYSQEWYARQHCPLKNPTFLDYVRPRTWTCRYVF
The data set can be described thus: Test for ACAT inhibitory activity in J774A cells (cholesterol ester production). The format is cell-based. The procedure: J774 cells (2×10^5 cells/well) were seeded on a 24-well plate and incubated for 24 hours in DMEM (10% FBS, 500 μL). After replacement with a new medium, 25-hydroxycholesterol (10 μg/mL) and ACAT inhibitor (final concentration: 0, 10^−9 to 10^−5 mol/L) were added thereto, followed by incubation for 18 hours. After washing with 0.9% sodium chloride, the lipid was extracted with hexane-isopropanol (3:2) (250 μL) and then with hexane-isopropanol (3:2) (250 μL) again. The extracts were combined, and the solvent was removed. The thus-obtained cholesterol ester (CE) was quantified through the fluorescent enzyme assay. The cells from which the lipid had been extracted were subjected to protein assay (micro BCA assay), to thereby determine the amount of CE per mg of protein.

Data set [1] in a line: Oral administration test in rats (plasma levels). The format is in vivo, rat. As to conditions: 10 mg/kg p.o. As to the method:
Each test compound was dissolved in a 0.01N hydrochloric acid solution, and the solution was perorally administered to male or female rats at 10 mg/5 mL/kg. Blood samples (0.25 mL each) were collected 30, 60, 120, 180, 240, and 360 minutes after administration. The collected blood samples were centrifuged for five minutes at 4° C. and 9,000 g, to thereby prepare plasma samples. The plasma samples were stored at −30° C. before measurement. The samples were subjected to the extraction procedure*, and plasma levels of the test compound were determined through LC/MS/MS.
(§1) The extraction was performed in a manner similar to that of the test on stability against metabolism in human liver microsome.

Data set [2] is described as follows: Solubility test (Japanese Pharmacopoeia Solution I). The format is physicochemical. As to conditions: simulated gastric fluid, kinetic from dmso stock, pH 1.2, filtrate through 0.2-μm filter, HPLC. As to the method: Each test compound was dissolved in acetonitrile to form a 100 μM solution, and the solution was added to Japanese Pharmacopoeia Solution I to form a 1000 ng/mL solution. The resultant solution was stirred for ten minutes, and an aliquot (1 mL) was placed into an injection tube and then passed through a 0.2-μm filter (HLC-DISK 13, water/solvent, Kanto Kagaku Kabushiki-kaisya). The filtrate (0.5 mL) was subjected to the extraction procedure*, and the amount of the test compound was determined through HPLC.
as §1

Data set [3] in a line: Test on stability against metabolism in human liver microsome. Type of data set: in vitro ADME. Conditions: 30 minutes after initiation of reaction, 37° C., FIG. 1. As to the method:
In accordance with Table 2 described below, an NRS (NADPH regenerating system) solution and 16% human serum albumin were added to 0.1 mol/L phosphate buffer (pH 7.4), and a solution of a test compound (100 μM) in acetonitrile (0.01 mL) was added thereto. The mixture was pre-incubated for five minutes in a warm bath at 37° C., and human liver microsome (POOLED HUMAN LIVER MICROSOMES, Lot. No. 20, product of GENTEST) was added thereto, followed by allowing reaction for 30 minutes in a warm bath at 37° C. An aliquot (0.25 mL) was collected from the reaction mixture 0 and 30 minutes after the start of reaction, followed by extraction*. The amount of the test compound was determined through HPLC. Residual percentage of the unchanged compound after 30 minutes was calculated based on the following equation: peak area after 30 minutes/peak area at 0 minute)×100.
To each sample, gkycine buffer (pH 10, 1.0 mL), an internal standard substance (0.1 mL), and tert-butyl methyl ether (5.0 mL) were added. The mixture was shaken for ten minutes and then centrifuged at 2,500 rpm […], and the […] was collected.
On the technique in general: Liver microsomes are vesicles of endoplasmic reticulum, rich in cytochrome P450 enzymes.

Values after ≈ are worked out from the molar mass of the structure shown. Counter-ions that a name gives are not always drawn.

Turning to `Cc1cc(OCC(F)(F)F)c(NC(=O)CN2CCN(CCSc3nc4cc(F)c(F)cc4[nH]3)CC2)c(OCC(F)(F)F)n1` [Compound (1b), 2-[4-[2-(5,6-difluorobenzimidazol-2-ylthio)ethyl]piperazin-1-yl]-N-[2,4-bis(2,2,2-trifluoroethoxy)-6-methylpyridin-3-yl]acetamide], the melting point (commonly the temperature, or range, at which the solid turns liquid) was in the range of 191 to 192 °C. In addition, half-maximal inhibition on ACAT (IC50) was put at 75 nM. In addition, in data set [1] (Female rat), the AUC (commonly the area under the concentration-time curve, a measure of exposure) is 6550 ng·h/mL and the maximum concentration (Cmax) – broadly, the highest concentration seen after dosing – was determined as 2840 ng/mL. In data set [1] (Male rat), this compound showed an AUC of 917 ng·h/mL and a Cmax of 614 ng/mL. For the same compound, the solubility – broadly, the dissolved amount per volume that the medium holds – at 10 min in data set [2] is 0.422 µg/mL (≈ 0.657 µM). In data set [3], the “residual percentage of the unchanged compound” value turned out to be 62%.

Compound `Cc1cc(OCC(F)(F)F)c(NC(=O)CN2CCN(CCSc3nc4ccc(F)cc4[nH]3)CC2)c(OCC(F)(F)F)n1` [Compound (1a), 2-[4-[2-(5-fluorobenzimidazol-2-ylthio)ethyl]piperazin-1-yl]-N-[2,4-bis(2,2,2-trifluoroethoxy)-6-methylpyridin-3-yl]acetamide] came in with a melting point of 182 to 182.7 °C. The IC50 – broadly, the point on the concentration scale where inhibition reaches its midpoint – against ACAT stood at 87 nM. In data set [1] (Female rat), the AUC is 5100 ng·h/mL and the Cmax is 3410 ng/mL. For the same compound, in data set [1] (Male rat), the AUC is 367 ng·h/mL and the Cmax came to 418 ng/mL. For the same compound, the solubility at 10 min in data set [2] was 0.562 µg/mL (≈ 0.9 µM). Further, in data set [3], the “residual percentage of the unchanged compound” value is 27%.

Turning to `CSc1cc(C)nc(SC)c1NC(=O)CN1CCN(CCSc2nc3ccccc3[nH]2)CC1` [Compound (B).HCl, reference compound], the AUC in data set [1] (Female rat) was 2470 ng·h/mL; in data set [1] (Male rat) it was 200 ng·h/mL. The Cmax in data set [1] (Female rat) was 1170 ng/mL; in data set [1] (Male rat) it was 207 ng/mL. In addition, the “residual percentage of the unchanged compound” value in data set [3] came to 16%.
